According to patent US7026161B2, “Lactobacillus sp. strain and use thereof” (Sesang Life Science, Inc., priority 2001, dated 2006):

System: Lactobacillus paracasei viro-01
Test: Antibiotic sensitivity test (disc)
Assay type: cell-based
Settings: for growth-inhibition zone: Mueller Hinton agar, 37° C., 16 hours; for resistance of Lactobacillus paracasei viro-01 to the antibiotic: judged by the zone limits printed per antibiotic (resistant/moderate/sensitive)
Procedure: Antibiotic sensitivity of the Lactobacillus paracasei viro-01 of the present invention were tested. The antibiotic resistance test was carried out by Scientec Lab Center Co., Ltd.(Daejeon city, Daedeok, Korea) approved by the KFDA.
Antibiotics used were Cephalexin, Flumequine, Furazolidone, Gentamycin, Spectinomycin, Tetracycline, Tiamulin, Neomycin, Chloramphenicol and Kanamycin, and test procedures were as described below.
5 to 6 colonies of cultured Lactobacillus paracasei viro-01 were selected, inoculated into bacterial growth medium composed of peptone 10.0 g/L, beef extract 10.0 g/L, yeast extract 5.0 g/L, glucose 20.0 g/L, Tween 80 1.0 mL/L, K2HPO4 2.0 g/L, sodium acetate 5.0 g/L, triammonium citrate 2.0 g/L, MgSO4.7H2O 0.2 g/L and MnSO4.4H2O 0.2 g/L and incubated at 37° C. Turbidity of said culture was adjusted to MacFarland No. 0.5, and used as test bacteria solution. Said test bacteria solution was smeared on Mueller Hinton agar plates and antibiotic sensitivity test disc was added thereto and incubated at 37° C. for 16 hours.
Antibiotic sensitivity was determined by measuring the area of growth inhibition surrounding each test disc.

Molecule: O=C(N[C@H](CO)[C@H](O)c1ccc([N+](=O)[O-])cc1)C(Cl)Cl [chloramphenicol, Chloramphenicol]
- growth-inhibition zone (content 30 μg/disc): 30 mm
- resistance of Lactobacillus paracasei viro-01 to the antibiotic (content 30 μg/disc): none
- resistance of Lactobacillus paracasei viro-01 to the antibiotic (content 30 μg/disc, listed as Chloramphenicol): no resistance

Molecule: CC1CCc2cc(F)cc3c(=O)c(C(=O)O)cn1c23 (centres unmarked) [flumequine, Flumequine]
- growth-inhibition zone (content 10 μg/disc): 0 mm
- resistance of Lactobacillus paracasei viro-01 to the antibiotic (content 10 μg/disc): strong
- resistance of Lactobacillus paracasei viro-01 to the antibiotic (content 10 μg/disc, listed as Flumequine): resistance

Molecule: O=C1OCCN1/N=C/c1ccc([N+](=O)[O-])o1 [furazolidone, Furazolidone]
- growth-inhibition zone (content 10 μg/disc): 0 mm
- resistance of Lactobacillus paracasei viro-01 to the antibiotic (content 10 μg/disc): strong
- resistance of Lactobacillus paracasei viro-01 to the antibiotic (content 10 μg/disc, listed as Furazolidone): resistance

Molecule: NC[C@H]1O[C@H](O[C@H]2[C@H](O)[C@@H](O[C@H]3O[C@H](CO)[C@@H](O)[C@H](N)[C@H]3O)[C@H](N)C[C@@H]2N)[C@H](O)[C@@H](O)[C@@H]1O [kanamycin, Kanamycin]
- growth-inhibition zone (content 10 μg/disc): 9 mm

Molecule: CC1=C(C(=O)O)N2C(=O)[C@@H](NC(=O)[C@H](N)c3ccccc3)[C@H]2SC1 [sephalexin, Cephalexin]
- growth-inhibition zone (content 10 μg/disc): 0 mm
- resistance of Lactobacillus paracasei viro-01 to the antibiotic (content 10 μg/disc): strong
- resistance of Lactobacillus paracasei viro-01 to the antibiotic (content 10 μg/disc, listed as Cephalexin): resistance

Molecule: CN[C@@H]1[C@H](O)[C@H](NC)[C@H]2O[C@@]3(O)C(=O)C[C@@H](C)O[C@H]3O[C@@H]2[C@H]1O [spectinomycin, Spectinomycin]
- growth-inhibition zone (content 10 μg/disc): 0 mm
- resistance of Lactobacillus paracasei viro-01 to the antibiotic (content 10 μg/disc): strong
- resistance of Lactobacillus paracasei viro-01 to the antibiotic (content 10 μg/disc, listed as Spectinomycin): resistance

Molecule: CN(C)[C@@H]1C(O)=C(C(N)=O)C(=O)[C@@]2(O)C(O)=C3C(=O)c4c(O)cccc4[C@@](C)(O)[C@H]3C[C@@H]12 [tetracycline, Tetracycline]
- growth-inhibition zone (content 30 μg/disc): 30 mm

Molecule: C=C[C@]1(C)C[C@@H](OC(=O)CSCCN(CC)CC)[C@]2(C)[C@H](C)CC[C@]3(CCC(=O)[C@H]32)[C@@H](C)[C@@H]1O [tiamulin, Tiamulin]
- growth-inhibition zone (content 10 μg/disc): 28 mm
- resistance of Lactobacillus paracasei viro-01 to the antibiotic (content 10 μg/disc): none
- resistance of Lactobacillus paracasei viro-01 to the antibiotic (content 10 μg/disc, listed as Tiamulin): no resistance

Molecule: Gentamycin
- growth-inhibition zone (content 10 μg/disc): 13 mm
- resistance of Lactobacillus paracasei viro-01 to the antibiotic (content 10 μg/disc): moderate
- resistance of Lactobacillus paracasei viro-01 to the antibiotic (content 10 μg/disc, listed as Gentamycin): moderate resistance

Molecule: Neomycin
- growth-inhibition zone (content 10 μg/disc): 13 mm
- resistance of Lactobacillus paracasei viro-01 to the antibiotic (content 10 μg/disc): moderate
- resistance of Lactobacillus paracasei viro-01 to the antibiotic (content 10 μg/disc, listed as Neomycin): moderate resistance
